{"source": "the supplement of paper PMC10307832", "experiment_in_all_cases": "relative viability (nuclei count vs DMSO), 5 days (fraction); higher = more cells survive", "key": {"NCI-H2087": {"test_system": "NCI-H2087", "in_short": "(§1)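 Dosing by pin tool came one day after lung cancer cell lines were seeded in 1536-well plates, using either one drug or a fixed anchor-drug dose plus five library-drug doses (not always all listed) in √10 steps. After 5 days, nuclei were counted on 4× images. Relative viability is treated-well nuclei count divided by vehicle-well nuclei count, and values are medians of duplicate plates.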"}, "NCI-H2126": {"test_system": "NCI-H2126", "in_short": "as §1"}, "NCI-H2347": {"test_system": "NCI-H2347", "in_short": "as §1"}, "NCI-H23": {"test_system": "NCI-H23", "in_short": "as §1"}, "NCI-H2405": {"test_system": "NCI-H2405", "in_short": "as §1"}, "NCI-H322M": {"test_system": "NCI-H322M", "in_short": "as §1"}, "NCI-H520": {"test_system": "NCI-H520", "in_short": "as §1"}, "NCI-H647": {"test_system": "NCI-H647", "in_short": "as §1"}, "NCI-H650": {"test_system": "NCI-H650", "in_short": "as §1"}, "NCI-H661": {"test_system": "NCI-H661", "in_short": "as §1"}, "PC-14": {"test_system": "PC-14", "in_short": "as §1"}, "RERF-LC-KJ": {"test_system": "RERF-LC-KJ", "in_short": "as §1"}}, "data": [{"smiles": "NC(=O)Nc1cc(-c2cccc(F)c2)sc1C(=O)N[C@H]1CCCNC1", "note": "[AZD7762] + Nc1nc2[nH]cc(CCc3ccc(C(=O)N[C@@H](CCC(=O)O)C(=O)O)cc3)c2c(=O)[nH]1 [Pemetrexed] (partner 0.2 µM)", "values": [{"measurement": "relative viability", "setting": "NCI-H2087; first compound 0.1 µM", "result": 0.714}, {"measurement": "relative viability", "setting": "NCI-H2087; first compound 0.3162 µM", "result": 0.66}, {"measurement": "relative viability", "setting": "NCI-H2087; first compound 1 µM", "result": 0.692}, {"measurement": "relative viability", "setting": "NCI-H2126; first compound 0.01 µM", "result": 0.659}, {"measurement": "relative viability", "setting": "NCI-H2126; first compound 0.03162 µM", "result": 0.646}, {"measurement": "relative viability", "setting": "NCI-H2126; first compound 0.1 µM", "result": 0.553}, {"measurement": "relative viability", "setting": "NCI-H2126; first compound 0.3162 µM", "result": 0.576}, {"measurement": "relative viability", "setting": "NCI-H2126; first compound 1 µM", "result": 0.365}, {"measurement": "relative viability", "setting": "NCI-H2347; first compound 0.01 µM", "result": 0.448}, {"measurement": "relative viability", "setting": "NCI-H2347; first compound 0.03162 µM", "result": 0.395}, {"measurement": "relative viability", "setting": "NCI-H2347; first compound 0.1 µM", "result": 0.455}, {"measurement": "relative viability", "setting": "NCI-H2347; first compound 0.3162 µM", "result": 0.403}, {"measurement": "relative viability", "setting": "NCI-H2347; first compound 1 µM", "result": 0.329}, {"measurement": "relative viability", "setting": "NCI-H23; first compound 0.01 µM", "result": 0.722}, {"measurement": "relative viability", "setting": "NCI-H23; first compound 0.03162 µM", "result": 0.62}, {"measurement": "relative viability", "setting": "NCI-H23; first compound 0.1 µM", "result": 0.514}, {"measurement": "relative viability", "setting": "NCI-H23; first compound 0.3162 µM", "result": 0.359}, {"measurement": "relative viability", "setting": "NCI-H23; first compound 1 µM", "result": 0.275}, {"measurement": "relative viability", "setting": "NCI-H2405; first compound 0.01 µM", "result": 0.998}, {"measurement": "relative viability", "setting": "NCI-H2405; first compound 0.03162 µM", "result": 1.25}, {"measurement": "relative viability", "setting": "NCI-H2405; first compound 0.1 µM", "result": 0.927}, {"measurement": "relative viability", "setting": "NCI-H2405; first compound 0.3162 µM", "result": 1}, {"measurement": "relative viability", "setting": "NCI-H2405; first compound 1 µM", "result": 0.466}, {"measurement": "relative viability", "setting": "NCI-H322M; first compound 0.01 µM", "result": 0.595}, {"measurement": "relative viability", "setting": "NCI-H322M; first compound 0.03162 µM", "result": 0.617}, {"measurement": "relative viability", "setting": "NCI-H322M; first compound 0.1 µM", "result": 0.571}, {"measurement": "relative viability", "setting": "NCI-H322M; first compound 0.3162 µM", "result": 0.542}, {"measurement": "relative viability", "setting": "NCI-H322M; first compound 1 µM", "result": 0.379}, {"measurement": "relative viability", "setting": "NCI-H520; first compound 0.01 µM", "result": 0.761}, {"measurement": "relative viability", "setting": "NCI-H520; first compound 0.03162 µM", "result": 0.458}, {"measurement": "relative viability", "setting": "NCI-H520; first compound 0.1 µM", "result": 0.421}, {"measurement": "relative viability", "setting": "NCI-H520; first compound 0.3162 µM", "result": 0.175}, {"measurement": "relative viability", "setting": "NCI-H520; first compound 1 µM", "result": 0.17}, {"measurement": "relative viability", "setting": "NCI-H647; first compound 0.01 µM", "result": 0.146}, {"measurement": "relative viability", "setting": "NCI-H647; first compound 0.03162 µM", "result": 0.128}, {"measurement": "relative viability", "setting": "NCI-H647; first compound 0.1 µM", "result": 0.108}, {"measurement": "relative viability", "setting": "NCI-H647; first compound 0.3162 µM", "result": 0.0887}, {"measurement": "relative viability", "setting": "NCI-H647; first compound 1 µM", "result": 0.0641}, {"measurement": "relative viability", "setting": "NCI-H650; first compound 0.01 µM", "result": 1.01}, {"measurement": "relative viability", "setting": "NCI-H650; first compound 0.03162 µM", "result": 0.891}, {"measurement": "relative viability", "setting": "NCI-H650; first compound 0.1 µM", "result": 0.968}, {"measurement": "relative viability", "setting": "NCI-H650; first compound 0.3162 µM", "result": 0.821}, {"measurement": "relative viability", "setting": "NCI-H650; first compound 1 µM", "result": 0.644}, {"measurement": "relative viability", "setting": "NCI-H661; first compound 0.01 µM", "result": 0.935}, {"measurement": "relative viability", "setting": "NCI-H661; first compound 0.03162 µM", "result": 0.739}, {"measurement": "relative viability", "setting": "NCI-H661; first compound 0.1 µM", "result": 0.597}, {"measurement": "relative viability", "setting": "NCI-H661; first compound 0.3162 µM", "result": 0.49}, {"measurement": "relative viability", "setting": "NCI-H661; first compound 1 µM", "result": 0.426}, {"measurement": "relative viability", "setting": "PC-14; first compound 0.01 µM", "result": 0.133}, {"measurement": "relative viability", "setting": "PC-14; first compound 0.03162 µM", "result": 0.0943}, {"measurement": "relative viability", "setting": "PC-14; first compound 0.1 µM", "result": 0.0891}, {"measurement": "relative viability", "setting": "PC-14; first compound 0.3162 µM", "result": 0.0706}, {"measurement": "relative viability", "setting": "PC-14; first compound 1 µM", "result": 0.0517}, {"measurement": "relative viability", "setting": "RERF-LC-KJ; first compound 0.01 µM", "result": 0.48}, {"measurement": "relative viability", "setting": "RERF-LC-KJ; first compound 0.03162 µM", "result": 0.461}, {"measurement": "relative viability", "setting": "RERF-LC-KJ; first compound 0.1 µM", "result": 0.441}, {"measurement": "relative viability", "setting": "RERF-LC-KJ; first compound 0.3162 µM", "result": 0.399}, {"measurement": "relative viability", "setting": "RERF-LC-KJ; first compound 1 µM", "result": 0.392}]}]}
